Structures can show the parent of a compound that is named as a salt. ± gives the standard deviation of the averaged measurements.
Tests used:
[1] = tested on: Homo sapiens (human subject panel, olfactory perception); assay: perceived odor pleasantness rating (rating 0-100); higher = more pleasant
Protocol: (§1)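 Human olfactory psychophysics. 55 healthy subjects (after excluding 6 low performers) sniffed 1 mL of each odorant diluted in paraffin oil (vials, two dilutions per molecule, 20 molecules presented twice). Each subject rated intensity, pleasantness and familiarity on a 0-100 slider, starting at 50 and required to move. Ratings were given only when the subject reported detecting a smell; per-subject ratings are averaged over subjects.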

[2] = tested on: Homo sapiens (human subject panel, olfactory perception); assay: perceived odor familiarity rating (rating 0-100); higher = more familiar
Protocol: as §1

[3] = tested on: Homo sapiens (human subject panel, olfactory perception); assay: perceived odor intensity rating (rating 0-100); higher = stronger perceived smell
Protocol: as §1

[4] = odor dilution in paraffin oil: 1/1,000
[5] = odor dilution in paraffin oil: 1/100,000
[6] = odor dilution in paraffin oil: 1/10,000,000
[7] = odor dilution in paraffin oil: 1/10

Compound | perceived odor pleasantness rating [1, 4] | perceived odor pleasantness rating [1, 5] | perceived odor familiarity rating [2, 4] | perceived odor familiarity rating [2, 5] | perceived odor intensity rating [3, 4] | perceived odor intensity rating [3, 5] | perceived odor pleasantness rating [1, 6] | perceived odor familiarity rating [2, 6] | perceived odor intensity rating [3, 6] | perceived odor pleasantness rating [1, 7] | perceived odor familiarity rating [2, 7] | perceived odor intensity rating [3, 7]
CCc1nccnc1C(C)=O [2-Acetyl-3-ethylpyrazine] | 25.7 ± 23 | 41.2 ± 23 | 57.2 ± 29 | 52.4 ± 30 | 79.4 ± 20 | 46.3 ± 30 |  |  |  |  |  | 
CC(=O)c1ccc(C)o1 [2-Acetyl-5-methylfuran] | 36.5 ± 25 | 47.4 ± 27 | 38.2 ± 28 | 38.2 ± 29 | 71.5 ± 22 | 25.2 ± 31 |  |  |  |  |  | 
CC(=O)c1nccs1 [2-Acetylthiazole] | 46.3 ± 31 | 47.7 ± 30 | 69.3 ± 28 | 58.3 ± 31 | 80 ± 20 | 76.3 ± 17 |  |  |  |  |  | 
CC(=O)c1cccs1 [2-Acetylthiophene] |  | 46 ± 23 |  | 42.4 ± 30 |  | 43.9 ± 29 | 52.4 ± 25 | 44.9 ± 30 | 25.3 ± 28 |  |  | 
CC(=O)c1ccccc1N [2-Aminoacetophenone] | 57.5 ± 27 | 58.4 ± 26 | 54.8 ± 30 | 52.7 ± 30 | 71.9 ± 24 | 66.7 ± 27 |  |  |  |  |  | 
CCOc1nccs1 [2-Ethoxythiazole] | 24.3 ± 23 | 37.6 ± 25 | 45.2 ± 30 | 42.5 ± 28 | 79.9 ± 19 | 52.7 ± 30 |  |  |  |  |  | 
CCc1nccnc1C [2-Ethyl-3-methylpyrazine] | 31.2 ± 26 | 43.9 ± 29 | 55.7 ± 32 | 60 ± 31 | 82.1 ± 17 | 70.5 ± 21 |  |  |  |  |  | 
CCc1nc(C)cs1 [2-Ethyl-4-methylthiazole] | 16.6 ± 19 | 33.6 ± 24 | 43.6 ± 30 | 45.6 ± 29 | 87 ± 15 | 73.1 ± 21 |  |  |  |  |  | 
CCC1(O)C2(C)CCC(C2)C1(C)C (centres undefined) [2-Ethylfenchol] | 37.2 ± 27 | 45.5 ± 25 | 58.9 ± 33 | 47.7 ± 35 | 73.6 ± 27 | 39.1 ± 34 |  |  |  |  |  | 
CCc1ccco1 [2-Ethylfuran] | 34.4 ± 24 | 38.3 ± 30 | 45.4 ± 31 | 31.4 ± 29 | 52.4 ± 31 | 42.2 ± 35 |  |  |  |  |  | 
CCCCC(CC)C(=O)O (centres undefined) [2-Ethylhexanoic acid] | 38.1 ± 22 |  | 47.7 ± 28 |  | 47.8 ± 31 |  |  |  |  | 28.4 ± 21 | 46.6 ± 29 | 73.7 ± 23
O=CSCc1ccco1 [2-Furanmethanethiol formate] |  | 21.5 ± 23 |  | 54.5 ± 36 |  | 87.3 ± 14 | 24.3 ± 28 | 58.5 ± 35 | 86.9 ± 14 |  |  | 
CC(=O)c1ccccc1O [2-Hydroxyacetophenone] | 29.5 ± 25 | 39.2 ± 24 | 49.6 ± 33 | 43.8 ± 29 | 80.7 ± 17 | 48.5 ± 30 |  |  |  |  |  | 
CC(C)Cc1nccs1 [2-Isobutylthiazole] |  | 41.4 ± 26 |  | 46.3 ± 29 |  | 61.3 ± 26 | 46.4 ± 23 | 32.4 ± 31 | 31.2 ± 31 |  |  | 
CC(C)c1ccccc1O [2-Isopropylphenol] | 28.8 ± 22 | 44.4 ± 20 | 49 ± 34 | 36 ± 29 | 84.3 ± 14 | 38.8 ± 30 |  |  |  |  |  | 
CC(O)C(C)S (centres undefined) [2-Mercapto-3-butanol] |  | 40 ± 26 |  | 41.6 ± 32 |  | 45.9 ± 32 | 50.2 ± 23 | 37 ± 26 | 30.2 ± 30 |  |  | 
COc1cncc(C(C)C)n1 [2-Methoxy-3(5 or 6)-isopropylpyrazine] | 27.3 ± 26 | 33.3 ± 22 | 50 ± 32 | 45.3 ± 28 | 80.8 ± 23 | 58 ± 30 |  |  |  |  |  | 

Compound | perceived odor pleasantness rating [1, 4] | perceived odor pleasantness rating [1, 5] | perceived odor familiarity rating [2, 4] | perceived odor familiarity rating [2, 5] | perceived odor intensity rating [3, 4] | perceived odor intensity rating [3, 5] | perceived odor pleasantness rating [1, 6] | perceived odor familiarity rating [2, 6] | perceived odor intensity rating [3, 6] | perceived odor pleasantness rating [1, 7] | perceived odor familiarity rating [2, 7] | perceived odor intensity rating [3, 7]
COc1nccnc1C [2-Methoxy-3-methylpyrazine] | 34.3 ± 34 | 52.6 ± 31 | 63 ± 31 | 64.6 ± 31 | 87.9 ± 13 | 79.5 ± 17 |  |  |  |  |  | 
COc1cc(C)ccc1O [2-Methoxy-4-methylphenol (replicate)] |  | 39.5 ± 24 |  | 51.8 ± 31 |  | 63 ± 28 | 45.5 ± 20 | 38.9 ± 26 | 33 ± 31 |  |  | 
COc1cc(C)ccc1O [2-Methoxy-4-methylphenol] |  | 39.6 ± 22 |  | 53.6 ± 30 |  | 60.2 ± 27 | 43.9 ± 23 | 37.5 ± 32 | 27 ± 29 |  |  | 
COc1ccccc1OC(C)=O [2-Methoxyphenyl acetate] | 37.4 ± 27 | 45.5 ± 27 | 46.3 ± 30 | 45.5 ± 30 | 74.2 ± 20 | 56 ± 30 |  |  |  |  |  | 
COc1cnccn1 [2-Methoxypyrazine] | 37.3 ± 30 | 54.8 ± 26 | 51.9 ± 34 | 52.6 ± 30 | 68.3 ± 29 | 41.6 ± 30 |  |  |  |  |  | 
COc1ccccc1S [2-Methoxythiophenol] |  | 15.7 ± 23 |  | 40.6 ± 34 |  | 88.2 ± 13 | 52.7 ± 24 | 37.6 ± 30 | 25.8 ± 22 |  |  | 
CCC(C)CO (centres undefined) [2-Methyl-1-butanol (replicate)] | 28 ± 26 | 44.4 ± 23 | 47.1 ± 32 | 37.1 ± 31 | 78.8 ± 18 | 36.4 ± 31 |  |  |  |  |  | 
CCC(C)CO (centres undefined) [2-Methyl-1-butanol] | 38.4 ± 24 | 48.6 ± 21 | 43.7 ± 29 | 43.3 ± 31 | 56.2 ± 33 | 32.2 ± 26 |  |  |  |  |  | 
CSc1ccoc1C [2-Methyl-3-methylthiofuran] |  | 24.5 ± 19 |  | 48.1 ± 28 |  | 66.8 ± 24 | 39.4 ± 20 | 33 ± 24 | 31.4 ± 28 |  |  | 
CCCC1CCOC(C)S1 (centres undefined) [2-Methyl-4-propyl-1,3-oxathiane] |  | 38.8 ± 30 |  | 53.6 ± 33 |  | 68.7 ± 25 | 51 ± 26 | 27.9 ± 27 | 22.7 ± 30 |  |  | 
CC1CCCCC1=O (centres undefined) [2-Methylcyclohexanone] | 31.6 ± 25 | 50.9 ± 22 | 49.8 ± 32 | 33.4 ± 30 | 74.6 ± 25 | 12.6 ± 18 |  |  |  |  |  | 
Cc1ccco1 [2-Methylfuran] |  | 52.6 ± 21 |  | 36.9 ± 27 |  | 25.1 ± 29 | 39.4 ± 22 | 38.5 ± 24 | 28.9 ± 27 |  |  | 
CCCC(C)C(=O)O (centres undefined) [2-Methylpentanoic acid] |  | 50 ± 25 |  | 37.4 ± 31 |  | 31.7 ± 30 | 37.9 ± 24 | 38 ± 29 | 35.6 ± 33 |  |  | 
CCCCCCCC(C)=O [2-Nonanone] | 60.3 ± 23 | 49.6 ± 23 | 52.3 ± 32 | 39.1 ± 31 | 58 ± 25 | 29.4 ± 30 |  |  |  |  |  | 
CC(C)C(=O)OCCOc1ccccc1 [2-Phenoxyethyl isobutyrate] | 55.1 ± 26 |  | 30.3 ± 31 |  | 27.5 ± 29 |  |  |  |  | 43.8 ± 22 | 44 ± 30 | 58.7 ± 26
CC=C(C=O)c1ccccc1 [2-Phenyl-2-butenal] |  | 36.6 ± 25 |  | 30.9 ± 30 |  | 19.8 ± 24 | 57.5 ± 21 | 34.5 ± 24 | 20.1 ± 29 |  |  | 
S=C=NCCc1ccccc1 [2-Phenylethyl isothiocyanate] | 21.3 ± 21 | 37.7 ± 26 | 47 ± 31 | 41.3 ± 28 | 75.5 ± 20 | 38.2 ± 30 |  |  |  |  |  | 

Source: the supplement of paper PMC4977894
